# Reference: US20100172865A1, “METHODS OF ENHANCING HAIR GROWTH” (priority 2010, published 2010)
# Like-named read-outs stand apart in the source and are kept apart here.
# How the values were obtained:
# wound healing = experiment: Local insulin on ulcers, tooth extraction wounds and gums; assay type: in vivo, human
# Description: We have used insulin for more than a decade to enhance the effectiveness of locally injected therapeutic agents specially cancers with chemotherapeutic agents with remarkable results. Our research data also supports that the insulin spray on indolent ulcers anywhere in the body, including the oral (gums) and nasal cavity.
# scalp hair growth = experiment: Local application of insulin to the scalp, alone or before other agents, hair growth; assay type: in vivo, human
# Description: Wash scalp with mild shampoo. Avoid using hair conditioners which may coat the bald skin resulting in prevention of the effective absorption of insulin. This is followed by application of oxidant. In our invention, we can use any one of the above described antioxidants, but in this instance we are discussing povidine iodine. […] Allow it to dry, and follow it by application of insulin by a spray or swab repeatedly 2-3 times as it dries.
# Apply the Wash dressing on the wound if need be.
# Step 4: Apply selected hair growth therapeutic agent, which includes prostaglandin and its derivatives which are already in the market and FDA approved.
# We recommend the use of tocotrienols after insulin application so that this therapeutic agent can easily permeate the hair follicle and promote the hair growth.
# Apply selected hair growth therapeutic agent using PGF 2α, and analogues.
# [1] = tested on: MCF-7 human breast cancer cells; details: MCF-7 cells, insulin plus methotrexate; cited from earlier work
# [2] = Description: If one develops hypoglycemic symptoms due to any number of reasons, drink a sugar drink, eat a candy, or fruit cocktail.
# [3] = tested on: cultured human hair follicles; details: cited from earlier work; for preventing hair follicles from entering into a catagen-like state, compared with insulin / rates of hair follicle growth compared with 10 micrograms/ml insulin: IGF-I 10 ng/ml, IGF-II 100 ng/ml; for effect on hair follicle growth: in the presence of 10 micrograms/ml insulin
# [4] = tested on: hair loss due to chemotherapy; experiment: Insulin spray on the scalp during chemotherapy; assay type: in vivo, human; details: 3-5 units of insulin diluted in normal saline or ringers lactate, cancer patients
# Experimental: It is this experience that leads us to this invention. […] We also experimented with application of cold pack to the scalp 15 minutes after insulin spray, which caused the constriction of BV and reduced the amount of chemotherapy agent reaching the scalp hair which causes havoc on the hair root cells. These three simple methods reduced the profound loss of scalp hair to chemotherapy toxic effects in cancer patients during chemotherapy treatment. Insulin applied directly to the scalp had preventive effect on hair loss due to chemotherapy.
# hair loss = details: clinical studies, taken by mouth; cited from earlier work
# [5] = cited from earlier work
# [6] = in the absence of insulin, 0.01-100 ng/ml
molecule,measurement,setting,value
insulin: hormone secreted by beta cells in the islets of Langerhans in the pancreas,gum diseases (periodontitis),wound healing; insulin and antibiotics such as doxycycline locally on the gums,eliminated gum diseases
same,healing after teeth extraction,"wound healing; insulin soaked cotton swabs, 1-3-5 units in normal saline",rapid healing with reduced pain
same,wound healing,wound healing; insulin spray on indolent ulcers,accelerated wound healing
same,hair follicle transplant healing and growth,"scalp hair growth; insulin applied with hair follicle transplant, no second agent",rapid wound healing along with uptake and growth of hair follicle transplant
same,hair growth,scalp hair growth; insulin on its own,enhances the hair growth
same,increase of the cytotoxic effect of methotrexate,[1],"up to 10,000 fold"
same,hypoglycemia,[2]; after application of insulin to the scalp,none of our cases developed hypoglycemia
same,side effect after application,[2]; insulin preparations on the scalp,itching and redness
same,darkening of the skin,[2]; simple insulin applied to enhance hair growth,did not result in any appreciable darkening of the skin
same,concentration giving maximum rates of hair follicle growth,[3]; follicles maintained in medium containing insulin,10 micrograms/ml
same,stimulation of hair follicle growth,[3]; over the range of 0.01 to 100 micrograms/ml,stimulated hair follicle growth in a dose-dependent manner
same,hair loss during chemotherapy,[4],reduced the hair loss dramatically
IGF-II: Insulin-like growth factor II,"preventing hair follicles from entering into a catagen-like state, compared with insulin",[3],more potent than insulin
same,rates of hair follicle growth compared with 10 micrograms/ml insulin,[3],unable to stimulate hair follicle growth to the same extent as insulin
same,stimulation of hair follicle growth,[3]; [6],stimulated hair follicle growth in a dose-dependent manner
same,concentration stimulating maximum rates of hair follicle growth,[3]; in the absence of insulin,100 ng/mL
same,effect on hair follicle growth,[3],no significant effect
CC(C)(C)NC(=O)[C@H]1CC[C@H]2[C@@H]3CC[C@H]4NC(=O)C=C[C@]4(C)[C@H]3CC[C@]12C [Finasteride],share of men in whom hair loss stopped,hair loss,83%
IGF-I: Insulin-like growth factor I,"preventing hair follicles from entering into a catagen-like state, compared with insulin",[3],more potent than insulin
same,rates of hair follicle growth compared with 10 micrograms/ml insulin,[3],identical
same,stimulation of hair follicle growth,[3]; [6],stimulated hair follicle growth in a dose-dependent manner
same,concentration stimulating maximum rates of hair follicle growth,[3]; in the absence of insulin,10 ng/mL
same,effect on hair follicle growth,[3],no significant effect
COc1cc(/C=C/C(=O)CC(=O)/C=C/c2ccc(O)c(OC)c2)ccc1O [curcumin],use as antioxidant for hair growth after application of insulin,scalp hair growth; applied after insulin,used effectively
Regular (R) humulin or novolin: Short-acting insulin,Duration of action,[5]; in vivo,5 to 8 h
same,Onset of action,[5]; in vivo,30 to 60 min
same,Peak effect,[5]; short-acting insulin,2 to 5 h
growth hormone: growth hormone (somatotrophin),influence on hair follicle and hair growth,[3]; growth hormone alone,no direct influence
